Values of other authors in patent publication US20150299754A1, “STREPTOMYCES MICROFLAVUS STRAINS AND METHODS OF THEIR USE TO CONTROL PLANT DISEASES AND PESTS” (Bayer CropScience LP, priority 2014, published 2015).

Columns and labels:
[1] = system: parasites on animals, such as pin worm; details: according to U.S. Pat. No. 3,849,398
[2] = system: gram-positive, gram-negative bacteria and tubercule bacillus; details: according to U.S. Pat. No. 3,849,398
powdery mildew = details: according to GB 1 507 193

CNCC(=O)NC(CO)C(=O)NC1C(C(N)=O)OC(n2ccc(N)nc2=O)C(O)C1O (stereo not drawn) [gougerotin]
parasiticidal action [1]: parasiticidal action
antibacterial activity [2]: weak antibacterial activity

NC(N)=NCC(O)CC(O)(C(=O)O)[C@H]1O[C@@H](n2cc(CO)c(N)nc2=O)C=C[C@@H]1NC(=O)[C@@H](N)CO (stereo partly drawn) [B-98891]
antifungal activity against powdery mildew (powdery mildew): antifungal activity
